Data on eight compounds can be found in patent publication US10219516B2, “Molecules having pesticidal utility, and intermediates, compositions, and processes, related thereto” (priority 2015, dated 2019).

Assay type in all cases: in vivo
Experiment [1] relates to Yellow Fever Mosquito (Aedes aegypti, AEDSAE). The experiment is described as follows: Bioassay on Yellow Fever Mosquito (YFM), 96-well plate larval assay. As to conditions: for YFM rating: Yellow Fever Mosquito, 96-well plate larval assay; for YFM (Biological Results, rating): Species YFM (Yellow Fever Mosquito). In short, it runs like this: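 Compound stocks at 4000 ppm in DMSO were diluted with 90:10 water/acetone, and 15 μL aliquots were dispensed into six replicate plates. About 1-day-old larvae in liver-powder water were added per well. Plates were covered and held at room temperature for 3 days before each well was scored for mortality.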

Experiment [2] concerns Cabbage Looper (Trichoplusia ni, TRIPNI). In words: Bioassay on Cabbage Looper (CL), 128-well diet tray assay. As to conditions: Trichoplusia ni. The gist of the method:
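Mortality of second instar larvae exposed to diet coated with 50 μg/cm^2 compound (acetone-water 90:10 vehicle, dried); 25° C., 5–7 days.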

For experiment [3], the system named is Beet Armyworm (Spodoptera exigua, LAPHEG). In words: Bioassay on Beet Armyworm (BAW), 128-well diet tray assay. The gist of the method: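 Artificial diet surface-treated with 50 μg/cm^2 test molecule in 90:10 acetone-water, dried, then infested with one to five second instar larvae per well. Held covered and vented at 25° C., 14:10 light-dark for five to seven days; percent mortality recorded per well and averaged over eight wells.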

Where [4] appears, read: Cabbage Looper, 128-well diet tray assay, read-out: CL rating.
The mark [5] stands for this setting: Beet Armyworm, 128-well diet tray assay, read-out: BAW rating.
[6] abbreviates: Species CL (Cabbage Looper), read-out: CL (Biological Results, rating).
[7] abbreviates: Species BAW (Beet Armyworm), read-out: BAW (Biological Results, rating).

Like-named read-outs stand apart in the source and are kept apart here.

Take `O=C(Nc1c[nH]c(=O)[nH]c1=O)c1cc(NC(=O)[C@H]2[C@H](c3cc(Cl)cc(Cl)c3)C2(Cl)Cl)ccc1Cl` (relative stereo) [PF139, trans-2-Chloro-5-(2,2-dichloro-3-(3,5-dichlorophenyl)cyclopropane-1-carboxamido)-N-(2,4-dioxo-1,2,3,4-tetrahydropyrimidin-5-yl)benzamide]: the YFM rating result in experiment [1] is recorded as “B (More than 0-Less than 80)”. The pest or weed control at 50 µg/cm2 in experiment [2] (setting [4]) and in experiment [3] (setting [5]) was 50 to 100% in each case.

Consider `Cc1cc(Cl)cc([C@H]2[C@H](C(=O)Nc3ccc(Cl)c(C(=O)Nc4ccc(F)cc4)c3)C2(Cl)Cl)c1` (relative stereo) [F116, trans-2-Chloro-5-(2,2-dichloro-3-(3-chloro-5-methylphenyl)cyclopropane-1-carboxamido)-N-(4-fluorophenyl)benzamide], for which the “YFM (Biological Results, rating)” value in experiment [1] is “A (80-100)”. Besides, the pest or weed control at 50 µg/cm2 in experiment [2] (setting [6]) and in experiment [3] (setting [7]) was 50 to 100% each time.

Turning to `N#Cc1cc(F)ccc1NC(=O)c1cc(NC(=O)[C@H]2[C@H](c3ccc(Cl)c(Br)c3)C2(Cl)Cl)ccc1Cl` (relative stereo) [F332, 5-(trans-3-(3-Bromo-4-chlorophenyl)-2,2-dichlorocyclopropane-1-carboxamido)-2-chloro-N-(2-cyano-4-fluorophenyl)benzamide], in experiment [1], the “YFM (Biological Results, rating)” value is given as “A (80-100)”. For the same compound, the pest or weed control at 50 µg/cm2 in experiment [2] (setting [6]) and in experiment [3] (setting [7]) was 50 to 100% in each case.

Regarding `O=C(Nc1ccc(F)cc1)c1cc(NC(=O)[C@H]2[C@H](c3cc(Cl)cc(Cl)c3)C2(Cl)Cl)ccc1C(F)(F)F` (relative stereo) [F3, trans-5-(2,2-Dichloro-3-(3,5-dichlorophenyl)cyclopropane-1-carboxamido)-N-(4-fluorophenyl)-2-(trifluoromethyl)benzamide], the “YFM (Biological Results, rating)” value in experiment [1] is “A (80-100)”. Moreover, the pest or weed control at 50 µg/cm2 in experiment [2] (setting [6]) and in experiment [3] (setting [7]) was 50 to 100% in each case.

Take `C=C(F)c1cc(Cl)cc([C@H]2[C@H](C(=O)Nc3ccc(Cl)c(C(=O)Nc4ccc(F)cc4F)c3)C2(Cl)Cl)c1` (relative stereo) [F386, 2-Chloro-5-(trans-2,2-dichloro-3-(3-chloro-5-(1-fluorovinyl)phenyl)cyclopropane-1-carboxamido)-N-(2,4-difluorophenyl)benzamide]: the YFM rating entry in experiment [1] is “A (80-100)”. Moreover, the pest or weed control at 50 µg/cm2 in experiment [2] (setting [4]) and in experiment [3] (setting [5]) was 50 to 100% in each case.

For `C=Cc1cc([C@H]2[C@H](C(=O)Nc3ccc(Cl)c(C(=O)Nc4ccc(F)cc4F)c3)C2(Cl)Cl)ccc1C(F)(F)F` (relative stereo) [F392, 2-Chloro-5-(trans-2,2-dichloro-3-(4-(trifluoromethyl)-3-vinylphenyl)cyclopropane-1-carboxamido)-N-(2,4-difluorophenyl)benzamide], in experiment [1], the YFM rating entry is listed as “A (80-100)”. The pest or weed control at 50 µg/cm2 in experiment [2] (setting [4]) and in experiment [3] (setting [5]) was 50 to 100% each time.

Regarding `Cc1cccc(NC(=O)c2cc(NC(=O)[C@H]3[C@H](c4cc(Cl)cc(Cl)c4)C3(Cl)Cl)ccc2Cl)c1C#N` (relative stereo) [F304, 2-Chloro-N-(2-cyano-3-methylphenyl)-5-(trans-2,2-dichloro-3-(3,5-dichlorophenyl)cyclopropane-1-carboxamido)benzamide], the “YFM (Biological Results, rating)” value in experiment [1] is given as “A (80-100)”. Moreover, the pest or weed control at 50 µg/cm2 in experiment [2] (setting [6]) and in experiment [3] (setting [7]) was 50 to 100% in each case.

For the compound `O=C(Nc1ccc([S+]([O-])C(F)(F)F)cc1)c1cc(NC(=O)[C@H]2[C@H](c3cc(Cl)cc(Cl)c3)C2(Cl)Cl)ccc1Cl` (relative stereo) [PF20, trans-2-Chloro-5-(2,2-dichloro-3-(3,5-dichlorophenyl)cyclopropane-1-carboxamido)-N-(4-((trifluoromethyl)sulfinyl)phenyl)benzamide], in experiment [1], the YFM rating result is listed as “A (80-100)”. In addition, the pest or weed control at 50 µg/cm2 in experiment [2] (setting [4]) and in experiment [3] (setting [5]) was 50 to 100% throughout.
